From patent US20240131499A1, “BIOMIMETIC CATALYSTS FOR DIVERSE INDUSTRIAL APPLICATIONS IN CHEMICAL REACTIONS” (Wisconsin Alumni Research Foundation, priority 2022, published 2024)
Several values for one entry are separate records, joined by “and”; a condition that tells them apart may be missing. Equal values may be shown once. Values belong to the compound of their own block, whether it stands above or below them.

Tests used:
[1] = Reaction kinetics analysis for lactose hydrolysis; conditions: 100° C.
Method: The glass vial was capped to prevent the solvent from evaporation, and the hydrolysis reaction was carried out at 100° C. in an oil bath (120 and 90° C. were used to measure activation energies) with 600-800 rpm stirring. […] 0.105 g (=0.1 mL) of liquid sample solution was collected at each day (every 18-26 h) for 5 days and diluted in 0.399 g (=0.4 mL) of MQ water for the reaction kinetics analysis, and the diluted sample was filtered by syringe filter (20 μm pore) and analyzed by HPLC.
(§1) The chemical concentrations of hydrolyzed lactose solutions were quantified by high performance liquid chromatography (HPLC) analysis. The hydrolyzed solutions with immobilized catalysts were centrifuged (2500 rpm, 20 min) to separate the immobilized catalyst in the aqueous phase solution. 0.105 g (0.1 mL) of the aqueous solution was diluted in 0.399 g (0.4 mL) of Milli-Q water (5 times dilution by volume) to analyze the concentrations of lactose, glucose, galactose, and HMF as one of by-products by glucose degradation. […] The temperature of the HPLC column was maintained at 50° C., and the flow rate of the mobile phase (pH 2 water, acidified by sulfuric acid) was 0.6 mL/min.

[2] = Active site analysis: rate constants for the active sites in lactose hydrolysis; conditions: 100° C.; for rate constant for the active site G1H (kG1H): homogeneous catalyst
Method: Addition of Ca(OAc)2 for the investigation of catalytic active sites: The rate constants for H^+ and non-dissociated carboxylic acid from the acid catalysts were determined by combining results from separate reaction kinetics experiments. […] In the presence of different amounts of Ca(OAc)2, the predicted rates can be calculated by using a linear combination of the rate constants and the concentrations of corresponding active sites (equation in FIG. 1C). […] The kG1H value for each biomimetic catalyst was then used to calculate the turnover frequency (TOF=kG1H·[Lactose]0) for comparison of catalytic activities from the engineered biomimetic catalysts in FIG. 2A. […] This analysis accounts for the contributions from the catalytic activity of H^+ (pH effect) and the catalytic activity of the active site (G1H).

[3] = Solubility of the organocatalyst in water; assay type: physicochemical; conditions: in water at 100° C.; read-out: solubility limit
Excerpt: Immobilization of the organocatalyst on a solid support material can prevent catalyst precipitation by distributing the organocatalyst on the surface of the support. […] Catalytic reaction over the immobilized organocatalyst is analogous to the mechanism of enzymatic reactions. For instance, an organocatalyst complex on a well-defined support with controlled surface properties can act in an analogous fashion as an active site in the channel of an enzyme. Reactants bind on the G1H sites by the interaction between surface functionality on the support and the organocatalyst. Lower loading of catalyst on a support enhances the catalytic activity (FIGS. 16A and 1D) by forming a more uniform distribution of the complex on the support.

[4] = Lactose hydrolysis in the presence of Ca(OAc)2; conditions: 100° C.
Method: The glass vial was capped to prevent the solvent from evaporation, and reaction was carried out at 100° C. in an oil bath with 800 rpm stirring. 0.105 g (0.1 mL) of liquid sample solution was collected each day (every 18-26 h) for 5 days and diluted in 0.399 g (0.4 mL) of MQ water for the reaction kinetics analysis. The diluted sample was analyzed by HPLC. Experimentally measured rates at different concentrations of Ca(OAc)2 were analyzed by the kinetic model (Equations 1-4).
as §1

[5] = at 100° C.; extrapolated; cited from earlier work
[6] = homogeneous (non-immobilized) catalyst, amino acids 82-84 mM, 95% confidential intervals

suppression of kd,app/kapp compared to glutamic acid [1]: 55.2% | kd,app, apparent rate constant for glucose degradation [1, 6]: 0.0022 ± 0.0008 h⁻¹
SMILES: O=C(O)CCC(C(=O)O)N1C(=O)CCC1=O (centres unmarked) [GA-MAL-H]
kapp, apparent rate constant for lactose hydrolysis [1, 6]: 0.0077 ± 0.0002 h⁻¹ | higher kG1H than kG1H for glutamic acid [2]: 31.9% | rate constant for the active site G1H (kG1H) [2]: 1.40 M⁻¹ h⁻¹

SMILES: [H+] [H^+]
rate constant for H^+ (kH+) ([2]; kapp=kH+·[H^+]): 0.9500 M⁻¹ h⁻¹

kd,app, apparent rate constant for glucose degradation ([1]; 37 mM homogeneous catalyst): 0.0016 ± 0.0005 h⁻¹ | kd,app, apparent rate constant for glucose degradation ([1]; 70 mM homogeneous catalyst): 0.0010 ± 0.0006 h⁻¹ | kd,app, apparent rate constant for glucose degradation [1, 6]: 0.0016 ± 0.0005 h⁻¹ | solubility [3]: ~37000 µM and ~27000 µg/mL
SMILES: O=C(O)CCC(C(=O)O)N1C(=O)C2C(C1=O)C1(CCC(=O)CCC34CCC(CO)(O3)C3C(=O)N(C(CCC(=O)O)C(=O)O)C(=O)C34)CCC2(CO)O1 (centres unmarked) [PHAH-GA-MAL-H]
kapp, apparent rate constant for lactose hydrolysis ([1]; 37 mM homogeneous catalyst): 0.0117 ± 0.0004 h⁻¹ | kapp, apparent rate constant for lactose hydrolysis ([1]; 70 mM homogeneous catalyst): 0.0103±0.0004 h^− | kapp, apparent rate constant for lactose hydrolysis [1, 6]: 0.0117 ± 0.0004 h⁻¹ | higher kG1H than GA-MAL-H [2]: 74.2% | kG1H relative to glutamic acid [2]: 2.3 times | rate constant for the active site G1H (kG1H) [2]: 2.45 M⁻¹ h⁻¹

SMILES: CC(=O)O [acetic acid]
kapp, apparent rate constant for lactose hydrolysis [1, 6]: 0.0015 ± 0.0001 h⁻¹ | rate constant for the non-dissociated acetic acid (kAA) ([2]; kapp=kH+·[H^+]+kAA·[AA]): 0.0051 M⁻¹ h⁻¹

SMILES: N[C@@H](CCC(=O)O)C(=O)O [glutamic acid, L-glutamic acid]
kapp, apparent rate constant for lactose hydrolysis [1, 6]: 0.0060 ± 0.0004 h⁻¹ | Rate of lactose hydrolysis ([4]; [Ca(OAc)2] 24 mM): 0.0005 M/h | kapp, apparent rate constant for lactose hydrolysis ([4]; [Ca(OAc)2] 24 mM): 0.0011 ± 0.0001 h⁻¹ | Rate of lactose hydrolysis ([4]; [Ca(OAc)2]=0 mM): 0.0026 M/h | kapp, apparent rate constant for lactose hydrolysis ([4]; [Ca(OAc)2]=0 mM): 0.0060 ± 0.0004 h⁻¹ | Rate of lactose hydrolysis ([4]; [Ca(OAc)2]=5 mM): 0.0016 M/h | kapp, apparent rate constant for lactose hydrolysis ([4]; [Ca(OAc)2]=5 mM): 0.0037 ± 0.0002 h⁻¹ | Rate of lactose hydrolysis ([4]; [Ca(OAc)2]=16 mM): 0.0007 M/h | kapp, apparent rate constant for lactose hydrolysis ([4]; [Ca(OAc)2]=16 mM): 0.0016 ± 0.0001 h⁻¹ | rate constant for the active site G1H (kG1H) [2]: 1.0644 M⁻¹ h⁻¹ and 1.06 M⁻¹ h⁻¹ | pKa,G1H (α-carboxylic acid) [5]: 2.24 | pKa,G2H (side-chain carboxylic acid) [5]: 4.55 | pKa,GNH (amine) [5]: 9.12

SMILES: O=S(=O)(O)O [sulfuric acid]
kapp, apparent rate constant for lactose hydrolysis [1, 6]: 0.1615 ± 0.0075 h⁻¹ | kd,app, apparent rate constant for glucose degradation [1, 6]: 0.0039 ± 0.0195 h⁻¹

kd,app, apparent rate constant for glucose degradation [1, 6]: 0.0005 ± 0.0116 h⁻¹
SMILES: N[C@@H](Cc1ccc(O)cc1)C(=O)O [tyrosine, L-tyrosine]
kapp, apparent rate constant for lactose hydrolysis [1, 6]: 0.0004 ± 0.0001 h⁻¹
